The numbers were not newly measured in PMC11247627, “Evaluation of Antibacterial Functionalized Dihydropyrimidine Photoaffinity Probes Toward Mechanism of Action Studies” (ACS Medicinal Chemistry Letters, 2024), which cites them from elsewhere.

The structures appear in SMILES notation.

Details in all cases: cited from earlier work
Data set [1] relates to dihydrofolate reductase (DHFR). Also on record: method as in PMID 18931753.
Data set [2] deals with MRSA. Set-up: method as in PMID 18931753, PMID 16883415.
For data set [3], the system named is mammalian toxicity. Also on record: method as in PMID 18931753.

`CCOC(=O)C1=C(CC)NC(N)=NC1c1cc(Cl)cc(Cl)c1O` (stereo not drawn) [compound 2, Emmacin]: in data set [1], the “DHFR inhibition (in words)” value is recorded as “previously reported to inhibit DHFR”. The “MRSA growth inhibition (in words)” value in data set [2] is listed as “found to inhibit MRSA growth”. Further, the “mammalian toxicity (in words)” value in data set [3] is reported as “lack mammalian toxicity”.
